In article PMC5811539, “Expression, Purification and Characterization of the Human Cannabinoid 1 Receptor” (Scientific Reports, 2018):

Experiments:
hΔCB1 = system: hΔCB1; parameters: method as in unpublished results; conditions: HEK293 cells; ref unpublished results; cited from earlier work
hΔCB1 receptor = system: T1, hΔCB1 receptor; experiment: Saturation binding assays (filtration and size-exclusion) with cell-free expressed hΔCB1; parameters: species or system human; conditions: cell-free expressed from pET15hΔCB1his6 and pET26shΔCB1his6, with nanodiscs, no T4 lysozyme
T1 construct: hCB1 receptor with an N-terminal 102 amino acid truncated residues (hΔCB1); host or cells: cell-free expression with nanodiscs
Procedure: The radioactive binding assays were performed with [^3H] CP-55,940 radioligand.

In the case of `CCCCCCC(C)(C)c1ccc([C@@H]2C[C@H](O)CC[C@H]2CCCO)c(O)c1` [CP-55,940], the “effect of N-terminal 102 amino acid truncation on binding” value (hΔCB1) is listed as “truncation does not affect the binding”.
With `CCCCCCC(C)(C)c1ccc([C@@H]2C[C@H](O)CC[C@H]2CCCO)c(O)c1` [[^3H] CP-55,940] the specific binding (hΔCB1 receptor) was “did not show any specific binding”.
